In patent EP4678639A1, “SALT OF BENZIMIDAZOLE DERIVATIVE” (JW Pharmaceutical Corporation, priority 2023, dated 2024):
Counter-ions that a name gives are not always drawn. Values belong to the compound of their own block, whether it stands above or below them.

How the values were obtained:
[1] = Liquid stability comparative test (20 mg/mL in purified water, 40 °C, 24 hours, HPLC); type: physicochemical; settings: for After 24 hours Purity (%) / Initial Purity (%) / After 24 hours Degradant (%) / Initial Degradant (%): 20 mg/mL in purified water; for After 24 hours Purity (%) / After 24 hours Degradant (%): 40 °C; for Initial Purity (%) / Initial Degradant (%): initial time point; for After 24 hours Degradant (%) / Initial Degradant (%): degradant of Formula 4; for solid precipitation / solution state: stored at 40 °C for 24 hours
Protocol: The analysis conditions are as follows.
Each sample was dissolved in purified water to prepare a solution with a concentration of 20 mg/mL, stored at an external temperature of 40 °C, and analyzed by HPLC at the initial time point and after 24 hours to measure purity, and the change in the generated degradant (Formula 4) was measured. The analysis of total related substances and degradants was performed by taking a liquid from a solution prepared at a concentration of 20 mg/mL, diluting it to a concentration of 4 mg/mL with the diluent of the related substance test method (HPLC), and measuring it as a test solution, and analyzing it according to the related substance test method (HPLC).

[2] = Solid-state stress stability test (humidity 90 % RH); settings: for absorb moisture and deliquesce / melted / Remarks: 90 % RH; for Remarks: 1 month, state of the solid; for Initial (%) Degradant / Initial (%) Total Related substances: Table 9, initial
[3] = Solid-state stress stability test (temperature 60 °C); settings: for Change (%) Degradant: 1 month vs initial; for Initial (%) Degradant / Initial (%) Total Related substances: Table 8, initial
[4] = Photostability test, visible light (1.2 Mlux·hr) exposure; settings: for Change (%) Degradant: Table 11, after exposure vs initial; for Initial (%) Degradant / Initial (%) Total Related substances: Table 11, initial; for After (%) Degradant / After (%) Total Related substances: Table 11 under heading Visible Light (1.2 Mlux-hr) Exposure Test
[5] = Photostability test, ultraviolet light (200 W·hr/m2) exposure; settings: for After Ultraviolet Light Exposure (200 W hr/m2)(%) Degradant / After Ultraviolet Light Exposure (200 W hr/m2)(%) Total Related substances: Table 10, UV 200 W·hr/m2, PE bag; for Change (%) Degradant: Table 10, after UV exposure vs initial; for Initial (%) Degradant / Initial (%) Total Related substances: Table 10, initial
[6] = Solid-state accelerated stability test (40 ± 2 °C/RH 75 ± 5 %); settings: for Change (%) Degradant: 1 month vs initial; for Initial (%) Degradant: degradant of Formula 4
[7] = 40 ± 2 °C / RH 75 ± 5 %, 1 month

Compound: Cc1nc2c(O[C@H]3CCOc4cc(F)cc(F)c43)cc(C(=O)N(C)C)cc2[nH]1 [Methanesulfonate Salt (Amorphous Form)]
After 24 hours Purity (%) [1]: 99.34% | Initial Purity (%) [1]: 99.90% | After 24 hours Degradant (%) [1]: 0.552% | Initial Degradant (%) [1]: 0.063% | Amount of Change Degradant (%) ([1]; initial vs after 24 hours at 40 °C): 0.49% | absorb moisture and deliquesce / melted [2]: absorb moisture and deliquesce | Remarks [2]: Melted | Initial (%) Degradant [2]: 0.284% | Initial (%) Total Related substances [2]: 0.530% | Change in Quality (%) 90 % RH (4 weeks) Degradant ([2]; Table 12 summary): Melted | Change in Quality (%) 90 % RH (4 weeks) Purity ([2]; Table 12 summary): Melted | total related substances increased after 1 month ([3]; 60 °C): ≥ 5.0% | After 1 Month (%) Degradant ([3]; 60 °C, 1 month): 9.245% | After 1 Month (%) Total Related substances ([3]; 60 °C, 1 month): 12.245% | change in appearance, change in the color of the solid ([3]; 60 °C, 1 month): change in appearance | Change (%) Degradant ([3]; 60 °C): 8.961% | Remarks ([3]; 60 °C, 1 month, appearance): Discolorat ion | Initial (%) Degradant [3]: 0.284% | Initial (%) Total Related substances [3]: 0.530% | Change in Quality (%) 60 °C (4 weeks) Degradant ([3]; Table 12 summary): 8.961% | Change (%) Degradant [4]: 0.154% | Initial (%) Degradant [4]: 0.284% | Initial (%) Total Related substances [4]: 0.530% | After (%) Degradant [4]: 0.438% | After (%) Total Related substances [4]: 0.909% | Change in Quality (%) Light (Visible) Degradant ([4]; Table 12 summary): 0.154% | After Ultraviolet Light Exposure (200 W hr/m2)(%) Degradant [5]: 0.366% | After Ultraviolet Light Exposure (200 W hr/m2)(%) Total Related substances [5]: 0.599% | Change (%) Degradant [5]: 0.082% | Initial (%) Degradant [5]: 0.284% | Initial (%) Total Related substances [5]: 0.530% | Change in Quality (%) Light (Ultraviolet) Degradant ([5]; Table 12 summary): 0.082% | Change in Quality (%) Light (Ultraviolet) Purity ([5]; Table 12 summary): 0.069% | After 1 Month (%) Degradant [6, 7]: 1.124% | After 1 Month (%) Total Related substances [6, 7]: 1.653% | Change (%) Degradant ([6]; 40 ± 2 °C / RH 75 ± 5 %): 0.840% | Initial (%) Total Related substances ([6]; Table 7, initial): 0.530% | Initial (%) Degradant ([6]; Table 7, initial): 0.284% | Change in Quality (%) Accelerated (4 weeks) Degradant ([6]; Table 12 summary): 0.840% | Change in Quality (%) Accelerated (4 weeks) Purity ([6]; Table 12 summary): -1.123% | increase in total related substances after 1 month ([6]; accelerated stability): ≥ 0.3%

Compound: Cc1nc2c(O[C@H]3CCOc4cc(F)cc(F)c43)cc(C(=O)N(C)C)cc2[nH]1 [Phosphate Salt]
After 24 hours Purity (%) [1]: Solid precipitated | Initial Purity (%) [1]: 99.97% | After 24 hours Degradant (%) [1]: Solid precipitated | Initial Degradant (%) [1]: 0.010% | solid precipitation / solution state [1]: solid precipitation | absorb moisture and deliquesce / melted [2]: absorb moisture and deliquesce | Remarks [2]: Melted | Initial (%) Degradant [2]: 0.085% | Initial (%) Total Related substances [2]: 0.254% | After 1 Month (%) Degradant ([3]; 60 °C, 1 month): 1.668% | After 1 Month (%) Total Related substances ([3]; 60 °C, 1 month): 2.423% | Change (%) Degradant ([3]; 60 °C): 1.583% | Initial (%) Degradant [3]: 0.085% | Initial (%) Total Related substances [3]: 0.254% | Change (%) Degradant [4]: 0.055% | Initial (%) Degradant [4]: 0.085% | Initial (%) Total Related substances [4]: 0.254% | After (%) Degradant [4]: 0.140% | After (%) Total Related substances [4]: 0.449% | After Ultraviolet Light Exposure (200 W hr/m2)(%) Degradant [5]: 0.096% | After Ultraviolet Light Exposure (200 W hr/m2)(%) Total Related substances [5]: 0.277% | Change (%) Degradant [5]: 0.011% | Initial (%) Degradant [5]: 0.085% | Initial (%) Total Related substances [5]: 0.254% | After 1 Month (%) Degradant [6, 7]: 0.205% | After 1 Month (%) Purity [6, 7]: 99.6% | After 1 Month (%) Total Related substances [6, 7]: 0.327% | Change (%) Degradant ([6]; 40 ± 2 °C / RH 75 ± 5 %): 0.120% | Initial (%) Purity ([6]; Table 7, initial): 99.7% | Initial (%) Total Related substances ([6]; Table 7, initial): 0.254% | Initial (%) Degradant ([6]; Table 7, initial): 0.085%

solid precipitation / solution state [1]: a solid precipitated | absorb moisture and deliquesce / melted [2]: deliquesced
Compound: maleate
